Data published in US20210205638A1, “PARATHYROID HORMONE AND REGENERATION OF DEGENERATIVE DISCS DISEASE” (THE JOHNS HOPKINS UNIVERSITY, priority 2017, published 2021).

Legend:
[1] = tested on: NP cells; experiment: Western blot of pCREB in NP cells of IFT88-/- or IFT88+/+ mice; format: cell-based, mouse
Method: (§1) Green fluorescent protein (GFP) labeled NP cells of notochordal origin were isolated from 15-day old Noto^Cre/+::ROSA26-lacZ^flox/flox male mice as previously described. The NP cells from 15-day old PTH1R^+/+ and PTH1R^−/−, IFT88^+/+ and IFT88^−/− male mice. Briefly, the cells were isolated from the NP region of IVDs in the spinal column from mid thoracic to lower lumbar region and digested initially with TrypLE Express (Gibco) for 30 minutes on shaker, followed by 0.25 mg/ml Collagense-P (Roche) for another […] at 37° C. The digested cells were washed twice with PBS, and cultured in α-MEM (Gibco) supplemented with 10% fetal calf serum (Atlanta Biologicals), and 1% penicillin—streptomycin (Mediatech) to 80-90% confluence at 37° C., 5% CO2 and 5% O2.
Western blot analyses were conducted on the protein lysates from in vitro cultured NP cells or NP tissues from mice at specific time points after PTH (1-34) treatment and human at different ages with lumbar disc degeneration. The protein extract was centrifuged, the concentration of supernatant evaluated by DC protein assay (Bio-Rad Laboratories), and then separated by SDS-PAGE and blotted on a polyvinylidene fluoride membrane (Bio-Rad Laboratories). Following incubation in specific antibodies, we detected proteins using an enhanced chemiluminescence kit (Amersham Biosciences). […]

[2] = tested on: NP cells; experiment: iPTH in PTH1R KO and wild-type mice: qRT-PCR of CCN2 and ACAN; format: in vivo, mouse
Method: The 11 month-old PTH1R^+/+ and PTH1R^−/− male mice were randomized into four groups: PTH1R^+/++PTH (1-34), PTH1R^+/++Vehicle, PTH1R^−/−+PTH (1-34) and PTH1R^−/−+Vehicle groups (n=8 per group). The 11 month-olds IFT88^+/+ and IFT88^−/− male mice were randomized into four groups: IFT88^+/++PTH (1-34), IFT88^+/++Vehicle, IFT88^−/−+PTH (1-34) and IFT88^−/−+Vehicle groups (n=8 per group). Mice were subcutaneously injected with either PTH (1-34) or vehicle (1 mM acetic acid in phosphate buffered saline (PBS) with equivalent volume of PTH) daily, 5 days per week, and all mice were sacrificed 4 weeks after treatment with PTH (1-34)/vehicle.
After protein extraction, specimen from the same group of mice were prepared for RNA extraction using TRIzol reagent (Invitogen) according to the manufacturer's instruction. The purity of RNA was tested by measuring the absorbance at 260 and 280 nm. For qRT-PCR, two micrograms of RNA was reverse transcribed into cDNA using the SuperScript firststrand synthesis system (Invitrogen) and analyzed with SYBR Green-Master Mix (Qiagen) in the thermal cycler with two sets of primers specific for each target gene. Relative expression was calculated for each gene by the 2^−ΔΔCT method, with GAPDH for normalization.

[3] = tested on: NP cells; experiment: pCREB immunostaining of IVD sections at time points after PTH treatment; format: in vivo, mouse
Method: For immunocytochemical staining, we incubated GFP labeled NP cells co-stained with primary antibody to rabbit PTH1R PRB-635P (Covance, 1:100) for 1 h and subsequently stained with secondary antibodies conjugated with fluorescence at room temperature. At the time of euthanasia, we dissected and fixed the lumbar vertebral spine in 10% buffered formalin for 48 h, decalcified them in 10% EDTA (pH 7.4) for 14-21 days and embedded them in paraffin or optimal cutting temperature (OCT) compound (Sakura Finetek). Fourmicrometer-thick coronal-oriented sections of the L1-L6 spine were processed for safranin O and fast green staining. […] For immunofluorescent assay, the slides were incubated with secondary antibodies conjugated with fluorescence at room temperature for 1 h while avoiding light. […]
Quantitative histomorphometric analysis was conducted in a blinded fashion with Image-Pro Plus Software version 6.0 (Media Cybernetics Inc). […] Five randomly selected sections per mice in each group at L3-L4 level were chosen for quantitative histomorphometric analysis. […] The percentage area of CCN2 and ACAN positive staining was calculated by measuring the positive area to the whole area of the L3-L4 in each group.

[4] = tested on: integrin β6; experiment: Western blot of integrin β6 in NP cells at time points after PTH; format: cell-based, mouse; conditions: PTH1-34 100 nM, time dependent manner
Method: (§2) Western blot analyses were conducted on the protein lysates from in vitro cultured NP cells or NP tissues from mice at specific time points after PTH (1-34) treatment and human at different ages with lumbar disc degeneration. The protein extract was centrifuged, the concentration of supernatant evaluated by DC protein assay (Bio-Rad Laboratories), and then separated by SDS-PAGE and blotted on a polyvinylidene fluoride membrane (Bio-Rad Laboratories). Following incubation in specific antibodies, we detected proteins using an enhanced chemiluminescence kit (Amersham Biosciences). We used specific antibodies recognizing rabbit CTGF (CCN2) (Abcam, 1:1000), Aggrecan (ACAN) (Abcan, 1:1000), p-Smad2 (Cell Signaling Technology Inc., 1:1000), Smad2 (Cell Signaling Technology Inc., 1:1000), GAPDH (Cell Signaling Technology Inc., 1:1000), CREB (Abcam, 1:2500), pCREB (Abcam, 1:2500), PTH1R PRB-635P (Covance, 1:100), PTH1R PRB-640P (Covance, 1:500) and goat integrin β6 (Santa Cruz, 1:500) to examine the protein concentrations in the lysates. Co-immunoprecipitation analyses were conducted on the nuclear and cytoplasmic protein extraction using NE-PER Nuclear and Cytoplasmic Extraction Kit (Pierce Thermo Scientific, 78833) from in vitro cultured NP cells treated with PTH (1-34) or vehicle.

[5] = tested on: NP cells; experiment: cAMP assay in NP cells (enzyme immunoassay); format: cell-based, mouse; conditions: PTH (1-34) 100 nmol
Method: as §1
For cAMP assays, confluent cells were grown in 35-mm six-well plates starved overnight by incubation in serum-free α-MEM at 37° C. The cells were then treated with 100 nM human of human PTH (1-34; Bachem Calif., Inc.) for 1 h. Cellular cAMP was extracted and the concentration measured with the Biotrak enzyme immunoassay system (GE Healthare, Inc., Princeton, HJ). We determined the concentration of total and active TGF-β in the NP tissue using the ELISA Development Kit (R&D Systems) according to the manufacturer's instructions.

[6] = tested on: NP tissues; experiment: Western blot of pSmad2 in NP tissue of aged mice; format: in vivo, mouse; conditions: NP tissues of 18-month-old mice
Method: as §2

## CC[C@H](C)[C@H](NC(=O)[C@H](CCC(=O)O)NC(=O)[C@H](CO)NC(=O)[C@@H](NC(=O)[C@@H](N)CO)C(C)C)C(=O)N[C@@H](CCC(N)=O)C(=O)N[C@@H](CC(C)C)C(=O)N[C@@H](CCSC)C(=O)N[C@@H](Cc1cnc[nH]1)C(=O)N[C@@H](CC(N)=O)C(=O)N[C@@H](CC(C)C)C(=O)NCC(=O)N[C@@H](CCCCN)C(=O)N[C@@H](Cc1cnc[nH]1)C(=O)N[C@@H](CC(C)C)C(=O)N[C@@H](CC(N)=O)C(=O)N[C@@H](CO)C(=O)N[C@@H](CCSC)C(=O)N[C@@H](CCC(=O)O)C(=O)N[C@@H](CCCN=C(N)N)C(=O)N[C@H](C(=O)N[C@@H](CCC(=O)O)C(=O)N[C@@H](Cc1c[nH]c2ccccc12)C(=O)N[C@@H](CC(C)C)C(=O)N[C@@H](CCCN=C(N)N)C(=O)N[C@@H](CCCCN)C(=O)N[C@@H](CCCCN)C(=O)N[C@@H](CC(C)C)C(=O)N[C@@H](CCC(N)=O)C(=O)N[C@@H](CC(=O)O)C(=O)N[C@H](C(=O)N[C@@H](Cc1cnc[nH]1)C(=O)N[C@@H](CC(N)=O)C(=O)N[C@@H](Cc1ccccc1)C(=O)O)C(C)C)C(C)C [PTH (1-34), teriparatide]
[1]; IFT88-/- NP cells (disruption of primary cilia)
  levels of CREB phosphorylation by PTH: significantly reduced
[1]; NP cells of wild-type mice
  phosphorylation of CREB (Western blot): significantly stimulated
[2]; NP cells of wild-type mice
  mRNA expression of ACAN: significantly increased
  mRNA expression of CCN2: significantly increased
[2]; PTH1R KO mice
  PTH increase of mRNA expression of ACAN: blunted
  PTH increase of mRNA expression of CCN2: blunted
[3]; after treatment
  time at which number of pCREB+ cells in NP area peaked: 1 hour
[3]; at 30 minutes after treatment
  number of pCREB+ cells in NP area: increased
[4]
  protein level of β6 integrin: significantly stimulated
[5]
  time at which cAMP level in NP cells peaked: 30 min
[6]
  pSmad2 (Western blot): increased
